From the supplement of paper PMC5844555

What was measured:
Experiment in all cases: 3' UTR reporter interaction score (median-centred robust z-score of log2 firefly/Renilla activity); higher = less repression of the 3' UTR reporter
Conditions in all cases: HEK293T; 48 h
[1] = tested on: BRCA2
How it was run: (§1)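 A firefly luc2P reporter carrying the gene's 3' UTR (100 ng), Renilla pRL-TK control (20 ng) and miRNA mimic (2.5 pmol) were co-transfected with DharmaFECT Duo into HEK293T cells plated at 10,000/well in 96-well plates. Luciferase activities were read 48 h post-transfection. The interaction score is the log firefly/Renilla ratio as a per-plate robust z-score from median and median absolute deviation, median-centred per miRNA, and more negative indicates interaction. Values are averages of at least two independent screens.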

[2] = tested on: NOTCH1
How it was run: as §1

[3] = tested on: RB1
How it was run: as §1

[4] = tested on: PHF6
How it was run: as §1

[5] = tested on: MYT1L
How it was run: as §1

[6] = tested on: TP53
How it was run: as §1

[7] = tested on: MYCN
How it was run: as §1

[8] = tested on: FBXW7
How it was run: as §1

[9] = tested on: HRAS
How it was run: as §1

[10] = tested on: ZEB2
How it was run: as §1

[11] = tested on: MYC
How it was run: as §1

[12] = tested on: EZH2
How it was run: as §1

[13] = tested on: MYB
How it was run: as §1

[14] = tested on: PHOX2B
How it was run: as §1

Row | Sequence | 3' UTR reporter interaction score [1] | 3' UTR reporter interaction score [2] | 3' UTR reporter interaction score [3] | 3' UTR reporter interaction score [4] | 3' UTR reporter interaction score [5] | 3' UTR reporter interaction score [6] | 3' UTR reporter interaction score [7] | 3' UTR reporter interaction score [8] | 3' UTR reporter interaction score [9] | 3' UTR reporter interaction score [10] | 3' UTR reporter interaction score [11] | 3' UTR reporter interaction score [12] | 3' UTR reporter interaction score [13] | 3' UTR reporter interaction score [14]
1 | UAUUGCACAUUACUAAGUUGC | 0.064 | -0.36 | 0.119 | 0.521 | 0.0117 | -0.165 | 1.19 | -3.29 | -0.69 | -0.436 | 0.647 | -1.18 | – | –
2 | UGAUUGUAGCCUUUUGGAGUAGA | 1.26 | – | -0.751 | 0.465 | -0.331 | -0.415 | 0.938 | -0.741 | 1.52 | -1.2 | -1.19 | 0.191 | 1.56 | -0.496
3 | UAGUAGACCGUAUAGCGUACG | -0.367 | 1.8 | 0.459 | 0.821 | 1.28 | 0.138 | 0.359 | -0.321 | -0.49 | 2.18 | -0.638 | -0.435 | 1.44 | –
4 | UAGGUAGUUUCCUGUUGUUGG | -0.449 | 0.244 | -0.415 | -0.855 | -0.34 | 0.913 | – | -0.0724 | -0.324 | 0.639 | -0.416 | 0.324 | 0.0231 | 0.179
5 | UUCUCCAAAAGGGAGCACUUUC | -0.958 | -0.166 | 1.31 | -0.0417 | 2.01 | -0.24 | 0.94 | -0.759 | 0.596 | 1.08 | -0.329 | -0.381 | -0.361 | –
6 | UGAGGUAGUAGGUUGUAUGGUU | 0.199 | – | – | 0.487 | 0.588 | -0.643 | -4.05 | 0.348 | 0.339 | 0.734 | -2.26 | -3.88 | 0.761 | -0.072
7 | CAUUAUUACUUUUGGUACGCG | -0.00235 | -0.00418 | 0.974 | -0.223 | -0.409 | 0.0619 | – | 0.0986 | 0.225 | 0.0582 | -0.4 | 0.119 | 0.454 | 0.437
8 | AAAGUGCUUCCUUUUAGAGGC | -0.921 | – | 0.31 | -0.00693 | -0.527 | 0.32 | 0.692 | 0.555 | -0.194 | 0.738 | -0.277 | -0.74 | -0.24 | 0.798
9 | GGCAGGUUCUCACCCUCUCUAGG | -0.0484 | 0.309 | – | -0.606 | -0.84 | -0.0357 | 0.446 | -1.49 | 0.517 | -0.268 | 0.583 | 0.162 | – | -1.4
10 | UGUCUUACUCCCUCAGGCACAU | 0.202 | – | 0.999 | 2.68 | -2.22 | 0.565 | -1.1 | 1.02 | -1.06 | -0.976 | -0.519 | -0.24 | -0.229 | 0.667
11 | AAUAUAACACAGAUGGCCUGU | -0.646 | 0.989 | -1.07 | – | -0.827 | 0.139 | – | 0.647 | 0.155 | -0.625 | 0.886 | 0.634 | -0.573 | 0.795
12 | UGUAAACAUCCUCGACUGGAAG | -0.114 | – | 0.575 | -2.11 | 0.672 | -0.35 | -0.46 | 0.336 | 0.246 | -1.69 | -0.476 | 0.0496 | 0.498 | –
13 | AAAGUGCUUCUCUUUGGUGGGUU | 0.0116 | 0.392 | 0.799 | -0.0534 | -0.567 | 0.499 | – | 0.685 | 0.266 | 0.955 | -0.26 | -1.56 | -0.782 | 1.31
14 | AACAUUCAUUGCUGUCGGUGGG | 0.08 | -0.249 | 0.0638 | 0.159 | -0.567 | 0.443 | – | 0.243 | -0.854 | 0.114 | 0.124 | 0.0847 | 0.0638 | 1.46
15 | UAAAGUGCUUAUAGUGCAGGUAG | 1.9 | 0.917 | 0.204 | 1.96 | -0.414 | -0.181 | -0.791 | -0.632 | 0.379 | 0.262 | -0.207 | -0.364 | -0.124 | –
16 | CACGCUCAUGCACACACCCAC | 0.0228 | 0.398 | -0.279 | -3.04 | 0.0877 | 1.21 | -0.371 | -1.61 | – | 1.26 | 0.38 | 0.315 | – | -1.58
17 | UUGAAACAAUCUCUACUGAAC | -0.93 | 0.836 | -1.43 | -1.21 | 0.3 | -0.126 | – | 1.05 | -0.263 | 0.917 | 0.402 | 0.163 | -0.218 | 0.857
18 | UUGUGUCAAUAUGCGAUGAUGU | -0.078 | – | 0.229 | 0.901 | -0.212 | -0.384 | -0.328 | -1.37 | 1.07 | 0.639 | 0.588 | 0.77 | -0.649 | -1.6
19 | CAAGAACCUCAGUUGCUUUUGU | -0.995 | -0.974 | – | -0.741 | -0.132 | 0.405 | – | -0.0454 | 1.03 | -1.03 | 0.13 | 0.928 | 0.335 | -0.954
20 | UCUGCUCAUACCCCAUGGUUUCU | 1.96 | -0.475 | 1.62 | 1.4 | -0.849 | 0.807 | -0.385 | -0.521 | -0.642 | -0.101 | 0.772 | 0.623 | -1.65 | –
